Several values for one entry are separate records, joined by “and”; a condition that tells them apart may be missing. Equal entries are not always repeated.
Assays:
[1] = target: T1, Recombinant human JAK1 (catalytic domain, amino acids 866-1154) (Homo sapiens, UniProt P23458); assay: JAK1 Ulight-JAK1 peptide assay; format: biochemical
T1 construct: Recombinant human JAK1 (catalytic domain, amino acids 866-1154; catalog number PV4774); purchased Invitrogen PV4774
Description: Recombinant human JAK1 (catalytic domain, amino acids 866-1154; catalog number PV4774) was purchased from Invitrogen. 1 ng of JAK1 was incubated with 20 nM Ulight-JAK1(tyr1023) peptide (Perkin Elmer catalog number TRF0121) in kinase reaction buffer (25 mM MOPS pH6.8, 0.01% Brij-35, 5 mM MgCl2, 2 mM DTT, 7 μM ATP) with or without 4 μL containing test compound or vehicle (DMSO, 1% final concentration), in a total volume of 20 μL, in a white 384 Opti plate (Perkin Elmer, catalog number 6007290). After 60 min at room temperature, reactions were stopped by adding 20 μL/well of detection mixture (1× detection buffer (Perkin Elmer, catalog number CR97-100C), 0.5 nM Europium-anti-phosphotyrosine (PT66) (Perkin Elmer, catalog number AD0068), 10 mM EDTA). Readout is performed using the Envision with excitation at 320 nm and measuring emission at 615 nm (Perkin Elmer). Kinase activity was calculated by subtracting relative fluorescence units (RFU) obtained in the presence of a positive control inhibitor (10 μM staurosporine) from RFU obtained in the presence of vehicle. The ability of a test compound to inhibit this activity was determined as:
Percentage inhibition=((RFU determined for sample with test compound present−RFU determined for sample with positive control inhibitor) divided by (RFU determined in the presence of vehicle−RFU determined for sample with positive control inhibitor))*100.
Dose dilution series were prepared for the compounds enabling the testing of dose-response effects in the JAK1 assay and the calculation of the IC50 for the compound. Each compound is routinely tested at concentration of 20 μM followed by a ⅕ serial dilution, 10 points in a final concentration of 1% DMSO. […] The data are expressed as the average IC50 from the assays±standard error of the mean.

[2] = system: GM-CSF-induced STAT5 phosphorylation; assay: Whole blood assay, GM-CSF stimulation, phospho-STAT5 by FACS; format: cell-based; conditions: human whole blood, CD14+ cells, 8 different donors
Description: In addition, a flow cytometry analysis was performed to establish JAK1 over JAK2 compound selectivity ex vivo using human whole blood. Therefore, blood was taken from human volunteers who gave informed consent. Blood was then equilibrated for 30 min at 37° C. under gentle rocking, then aliquoted in Eppendorf tubes. Compound was added at different concentrations and incubated at 37° C. for 30 min under gentle rocking and subsequently stimulated for 20 min at 37° C. under gentle rocking with interleukin 6 (IL-6) for JAK1-dependent pathway stimulation or GM-CSF for JAK2-dependent pathway stimulation. Phospho-STAT1 and phospho-STAT5 were then evaluated using FACS analysis.
For GM-CSF-stimulated increase of Signal Transducers and Activators of Transcription 5 (pSTAT5) phosphorylation in white blood cell, human whole blood, drawn from human volunteers who gave informed consent, is ex vivo treated with compound for 30 min and subsequently stimulated for 20 min with GM-CSF. The increase in phosphorylation of STAT5 by GM-CSF in monocytes is measured using an anti phospho-STAT5 antibody by FACS. […]
Cells are then washed once with 1×PBS and analyzed on a FACSCanto II flow cytometer (BD Biosciences).
50,000 total events are counted and Phospho-STAT5 positive cells are measured after gating on CD14+ cells. […]

T1 sequence (P23458 866-1154): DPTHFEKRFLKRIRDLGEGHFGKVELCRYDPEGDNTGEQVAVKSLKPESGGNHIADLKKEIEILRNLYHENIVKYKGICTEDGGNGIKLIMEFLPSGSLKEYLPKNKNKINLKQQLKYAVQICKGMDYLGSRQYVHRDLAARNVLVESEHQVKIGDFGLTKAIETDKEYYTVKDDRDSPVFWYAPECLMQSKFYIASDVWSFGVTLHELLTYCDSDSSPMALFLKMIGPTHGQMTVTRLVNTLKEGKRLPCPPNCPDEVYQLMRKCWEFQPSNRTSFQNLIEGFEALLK

CCc1cc(C2CN(S(C)(=O)=O)C2)ncc1N(C)c1cc2c(cn1)ncn2C [Compound 1, [4-Ethyl-6-(1-methanesulfonyl-azetidin-3-yl)-pyridin-3-yl]-methyl-(1-methyl-1H-imidazo[4,5-d]pyridin-6-yl)-amine]
selectivity for JAK1 vs the other JAK family members (JAK2, JAK3, and TYK2) [1]: at least 10 fold | IC50 ([1]; Ulight-JAK1(tyr1023) peptide, 7 μM ATP, individual determinations, read-out: IC50 against JAK1): 6.59 nM and 7.68 nM and 12.9 nM and 4.47 nM and 10.2 nM and 9.11 nM and 5.42 nM and 8.37 nM and 9.43 nM and 6.94 nM | JAK1 selectivity vs JAK2 ([1]; vs JAK2): > 15 fold | JAK1 selectivity vs JAK3 ([1]; vs JAK3): > 70 fold | JAK1 selectivity vs TYK2 ([1]; vs TYK2): > 80 fold | IC50 [2]: > 22400 nM

From patent publication US20140213576A1, “NOVEL COMPOUND USEFUL FOR THE TREATMENT OF DEGENERATIVE AND INFLAMMATORY DISEASES” (GALAPAGOS NV, priority 2013, published 2014)
